Tests used:
[1] = Decomposition in sandy loam soil at different moisture, CS2 in air space by gas chromatography; format: physicochemical; settings: hours to maximum CS2 concentration in the air space
Procedure: A sandy loam soil is placed in 1-liter glass bottles, fitted with stoppers having fluorocarbon liners and silicone rubber septa, to give a soil depth of about 4 cm. […] Thiocarbonate solution or carbon disulfide is injected near the bottom of the soil layer, the bottles are promptly sealed, and the air space in the bottles is sampled at intervals with a syringe, for gas chromatographic analysis of CS2. Results are summarized below, wherein degradation time is the number of hours required to achieve the maximum CS2 concentration in the air space.

[2] = system: root-knot nematode larvae (Meloidogyne incognita); assay: Greenhouse nematocide experiment with tomato plants, soil drench, root gall count; format: in vivo; settings: 30 days; for Gall Counts, replicate 3: control 1; for Gall Counts, Mean: control 4.0; for Gall Counts, replicate 2: control 7; for Gall Counts, replicate 1: control 4
Procedure: In the experiment, thirty containers are used, each containing about 500 grams of sterilized sandy loam soil. Each container contains one tomato plant. Each container is injected with four 5-milliliter portions of extract from nematode-infested pepper roots, one inch below the soil surface, producing an initial population of 2000 root-knot nematode larvae (Meloidogyne incognita) per container.
Ten treatments are replicated three times, each treatment consisting of drenching the soil with a solution containing the fumigant to provide the dosage of CS2 given in the following table. The solutions are diluted with sufficient water to saturate the soil. The treatments include calcium tetrathiocarbonate, stabilized ammonium tetrathiocarbonate, and carbon disulfide at three levels, plus an untreated control. After drenching, each container is allowed to stand at ambient conditions. The plants are harvested after 30 days of growth, and soil is removed from the roots by a gentle washing with water. By use of a magnifying glass, the number of root galls is counted on each plant.
Results are summarized below, wherein the "Application" represents milligrams of treatment per kilogram of soil, calculated as the thiocarbonate salt and the equivalent carbon disulfide. Gall counts are mean values from the three replicates.

[3] = Rate of carbon disulfide loss from solutions, nitrogen bubbling, mass spectrometer; format: physicochemical; settings: undiluted: Prep. 1 100%; pure carbon disulfide for comparison
Procedure: The rate at which carbon disulfide is lost from diluted ammonium thiocarbonate compositions is determined by bubbling nitrogen through the solutions, and measuring the carbon disulfide content of the gas which leaves the solution, using a mass spectrometer.
In the determination, the solution, corresponding to that of Preparation 1 (containing 14.1 percent by weight carbon disulfide), is compared to pure carbon disulfide, and to serial dilutions of the Preparation 1 solution with water, which prepared 10, 1 and 0.1 volume percent solutions of the original composition.
Results are as tabulated, wherein k is the calculated first order rate constant for loss of carbon disulfide, and t is the solution half-life.

[4] = Effect of pH on production of CS2 from thiocarbonates in citrate-phosphate buffers, gas chromatography of air; format: physicochemical
Procedure: Pure carbon disulfide is also injected, for comparison. A syringe is used to periodically sample air in the bottle, and the air is analyzed by gas chromatography.

nematode larvae = assay: In-vitro nematocidal test: larvae treated in aqueous suspension, injected into root zone of tomato plants, gall count; format: in vivo, Meloidogyne incognita; settings: for Gall Count, replicate 2: control 88; for Gall Count, Mean: control 89; for Gall Count, replicate 1: control 90
Procedure: The procedure of Example 2 is repeated except that potassium tetrathiocarbonate is substituted for stabilized ammonium tetrathiocarbonate and an in-vitro nematocidal test is used. In the in-vitro test, the nematode larvae are treated in aqueous suspension for 1 hour at the concentrations of fumigant given in the following table, washed twice with water, and injected into the active root zone of the tomato plants. After thirty days the roots are harvested, examined for galling, giving the results summarized below.

[5] = highest application: 638/89 ppm ((NH4)2CS4·(NH4)2S), 730/91 (CaCS4), 97 ppm (CS2)
[6] = lowest application: 213/30 ppm ((NH4)2CS4·(NH4)2S), 245/31 (CaCS4), 32 ppm (CS2)
[7] = middle application: 425/60 ppm ((NH4)2CS4·(NH4)2S), 490/61 (CaCS4), 65 ppm (CS2)
[8] = 10 ppm CS2, larvae treated 1 hour
[9] = 20 ppm CS2, larvae treated 1 hour

S=C=S [CS2, carbon disulfide, reference compound]
Degradation Time ([1]; Soil Moisture 0 % of Saturation): 3.5 h | Degradation Time ([1]; Soil Moisture 50 % of Saturation): 3.5 h | Degradation Time ([1]; Soil Moisture 100 % of Saturation): 3.5 h | Gall Counts, replicate 3 [2, 5]: 9 | Gall Counts, Mean [2, 5]: 20.0 | Gall Counts, replicate 2 [2, 5]: 24 | Gall Counts, replicate 1 ([2]; highest application: 638 ppm salt/89 ppm Eq. CS2 ((NH4)2CS4·(NH4)2S), 730/91 (CaCS4), 97 ppm (CS2)): 27 | Gall Counts, replicate 3 [2, 6]: 12 | Gall Counts, Mean [2, 6]: 22.0 | Gall Counts, replicate 2 [2, 6]: 23 | Gall Counts, replicate 1 ([2]; lowest application: 213 ppm salt/30 ppm Eq. CS2 ((NH4)2CS4·(NH4)2S), 245/31 (CaCS4), 32 ppm (CS2)): 31 | Gall Counts, replicate 3 [2, 7]: 33 | Gall Counts, Mean [2, 7]: 26.7 | Gall Counts, replicate 2 [2, 7]: 19 | Gall Counts, replicate 1 ([2]; middle application: 425 ppm salt/60 ppm Eq. CS2 ((NH4)2CS4·(NH4)2S), 490/61 (CaCS4), 65 ppm (CS2)): 28 | k, calculated first order rate constant for loss of carbon disulfide [3]: 2.0 (1)/(hour) | Half-life (minutes) for production of carbon disulfide ([4]; pH 5.2, 125 milligrams per liter of thiocarbonate ion): 1 min | Half-life (minutes) for production of carbon disulfide ([4]; pH 6.0, 125 milligrams per liter of thiocarbonate ion): 1 min | Half-life (minutes) for production of carbon disulfide ([4]; pH 7.0, 125 milligrams per liter of thiocarbonate ion): 1 min | Half-life (minutes) for production of carbon disulfide ([4]; pH 8.0, 125 milligrams per liter of thiocarbonate ion, CaCS4 values above pH 7 called unreliable): 1 min | Gall Count, replicate 2 (nematode larvae; [8]): 149 | Gall Count, Mean (nematode larvae; [8]): 106.5 | Gall Count, replicate 1 (nematode larvae; [8]): 64 | Gall Count, replicate 2 (nematode larvae; [9]): 73 | Gall Count, Mean (nematode larvae; [9]): 51.0 | Gall Count, replicate 1 (nematode larvae; [9]): 29
